Reference: US20230146455A1, “TREATMENT OF INFLAMMATORY DISEASES WITH PEPTIDES AND PHARMACEUTICAL COMPOSITIONS” (Yuyu Pharma, Inc., priority 2020, published 2023)
Where “and” joins values, the source holds several entries; their conditions need not be identical. Equal entries are not always repeated. Where a SMILES comes first, the peptide text is derived from it. [ ]: non-standard residue; d: D form. Hyp = O=C(O)[C@@H]1C[C@@H](O)CN1

Test system: CCL5/RANTES
Test: Example 9 Luminex, LPS hPBMCs: CCL5/RANTES
Type: cell-based, human
Description: Treatment Human PBMCs were pretreated with YY-101, YDE-011 and YDE-043 or reference compound; Xiidra® at various concentration (ranging from 1 nM to 100 uM) for 2 h before stimulation. An equal volume of 0.5% DMSO was used as a vehicle control. Then, the cells were treated with LPS at 5 ug/ml. The supernatants from treated cells were harvested at 24 h and placed in a 96 well for Luminex cytokine & chemokine profiling using a Luminex 200 multiplex assay (Luminex; R&D system, USA).
The main study arm with triplicate wells per group in a 24-well plate: • 1. Blank • 2. PBMC: 0.5% DMSO • 3. PBMC+LPS (5 ug/ml) • 4. PBMC+YY-101 100 uM • 5. PBMC+YY-101 10 uM • 6. PBMC+YY-101 1 uM • 7. PBMC+YY-101 0.1 uM • 8. PBMC+YY-101 0.01 uM • 9. PBMC+LPS (5 ug/ml)+Xiidra®100 uM • 10. PBMC+LPS (5 ug/ml)+Xiidra® 10 uM • 11. PBMC+LPS (5 ug/ml)+Xiidra® 1 uM • 12. PBMC+LPS (5 ug/ml)+Xiidra®0.1 uM • 13. PBMC+LPS (5 ug/ml)+Xiidra®0.01 uM • 14. PBMC+LPS (5 ug/ml)+Xiidra®0.001 uM • 15. PBMC+LPS (5 ug/ml)+YY-101 100 uM • 16. PBMC+LPS (5 ug/ml)+YY-101 10 uM • 17. PBMC+LPS (5 ug/ml)+YY-101 1 uM • 18. PBMC+LPS (5 ug/ml)+YY-101 0.1 uM • 19. PBMC+LPS (5 ug/ml)+YY-101 0.01 uM • 20. PBMC+LPS (5 ug/ml)+YY-101 0.001 uM • 21. PBMC+LPS (5 ug/ml)+YDE-011 100 uM • 22. PBMC+LPS (5 ug/ml)+YDE-011 10 uM • 23. PBMC+LPS (5 ug/ml)+YDE-011 1 uM • 24. PBMC+LPS (5 ug/ml)+YDE-011 0.1 uM • 25. PBMC+LPS (5 ug/ml)+YDE-011 0.01 uM • 26. PBMC+LPS (5 ug/ml)+YDE-011 0.001 uM • 27. PBMC+LPS (5 ug/ml)+YDE-043 100 uM • 28. PBMC+LPS (5 ug/ml)+YDE-043 10 uM • 29. PBMC+LPS (5 ug/ml)+YDE-043 1 uM • 30. PBMC+LPS (5 ug/ml)+YDE-043 0.1 uM • 31. PBMC+LPS (5 ug/ml)+YDE-043 0.01 uM • 32. PBMC+LPS (5 ug/ml)+YDE-043 0.001 uM
Multiplex assay was used to measure 30 cytokines and chemokines. The 1:2, 1:10 and 1:200 diluted cell supernatant and serial dilution of the standard were dispensed into a 96 well plate at 50 ul/well. Then, the pre-mixed cocktail of antibody-coated magnetic beads was dispensed at 50 ul/well and incubated at room temperature for 2 h in a horizontal orbital microplate shaker at 800±500 rpm. The beads were washed using a magnetic device to prevent loss. The biotin-antibody was dispensed in 50 ul of each well and incubated at room temperature for 1 h in a shaker at 800±500 rpm. After washing, streptavidin-PE was added at 50 ul/well and incubated at room temperature for 30 min in a shaker under the same conditions. Finally, after washing, wash buffer (100 ul/well) was added to the plate and incubated in a shaker for 2 min. The Luminex™ 200 setting were set according to the manufacturer's protocol. The data was calculated with a standard five-parameter logistic nonlinear regression analysis of the data (xPonent software 4.2, USA). The levels of cytokine/chemokine are normalized to the live cell counts (1×10^5 cells/mL) and presented as concentrations per mL (pg/mL or ng/mL).

[1] = PBMC + LPS(5 ug/ml), test article 0.001 uM, Mean
[2] = PBMC + LPS(5 ug/ml), test article 0.001 uM, single replicates (1st, 2nd, 3rd)
[3] = PBMC + LPS(5 ug/ml), test article 0.01 uM, Mean
[4] = PBMC + LPS(5 ug/ml), test article 0.01 uM, single replicates (1st, 2nd, 3rd)
[5] = PBMC + LPS(5 ug/ml), test article 0.1 uM, Mean
[6] = PBMC + LPS(5 ug/ml), test article 0.1 uM, single replicates (1st, 2nd, 3rd)
[7] = PBMC + LPS(5 ug/ml), test article 1 uM, Mean
[8] = PBMC + LPS(5 ug/ml), test article 1 uM, single replicates (1st, 2nd, 3rd)
[9] = PBMC + LPS(5 ug/ml), test article 10 uM, Mean
[10] = PBMC + LPS(5 ug/ml), test article 10 uM, single replicates (1st, 2nd, 3rd)
[11] = PBMC + LPS(5 ug/ml), test article 100 uM, Mean
[12] = PBMC + LPS(5 ug/ml), test article 100 uM, single replicates (1st, 2nd, 3rd)
[13] = PBMC without LPS, test article 0.01 uM, Mean
[14] = PBMC without LPS, test article 0.01 uM, single replicates (1st, 2nd)
[15] = PBMC without LPS, test article 0.1 uM, Mean
[16] = PBMC without LPS, test article 0.1 uM, single replicates (1st, 2nd)
[17] = PBMC without LPS, test article 1 uM, Mean
[18] = PBMC without LPS, test article 1 uM, single replicates (1st, 2nd)

CC(C)C[C@H](NC(=O)CNC(=O)[C@H](CC(=O)O)NC(=O)[C@H](CCC(N)=O)NC(=O)CNC(=O)[C@@H]1C[C@@H](O)CN1)C(=O)N[C@@H](C)C(=O)NCC(=O)N1CCC[C@H]1C(=O)N[C@@H](CCCCN)C(=O)O [YY-101] (H-[Hyp]GQDGLAGPK-OH; N-terminus and C-terminus assumed)
Concentration (CCL5/RANTES) [1]: 402.3 pg/mL
MFI (Bead name: CCL5/RANTES) [1]: 1103.2
conc/live cell (CCL5/RANTES) [1]: 62.7 pg/10^5
Concentration (CCL5/RANTES) [2]: 407.4 pg/mL and 412.9 pg/mL and 386.6 pg/mL
MFI (Bead name: CCL5/RANTES) [2]: 1120.5 and 1139.5 and 1049.5
conc/live cell (CCL5/RANTES) [2]: 71.5 pg/10^5 and 58.2 pg/10^5 and 58.6 pg/10^5
Concentration (CCL5/RANTES) [3]: 454.1 pg/mL
MFI (Bead name: CCL5/RANTES) [3]: 1281.8
conc/live cell (CCL5/RANTES) [3]: 73.6 pg/10^5
Concentration (CCL5/RANTES) [4]: 476.2 pg/mL and 443.9 pg/mL and 442.2 pg/mL
MFI (Bead name: CCL5/RANTES) [4]: 1358.5 and 1246.5 and 1240.5
conc/live cell (CCL5/RANTES) [4]: 74.4 pg/10^5 and 74.0 pg/10^5 and 72.5 pg/10^5
Concentration (CCL5/RANTES) [5]: 428.0 pg/mL
MFI (Bead name: CCL5/RANTES) [5]: 1191.5
conc/live cell (CCL5/RANTES) [5]: 73.5 pg/10^5
Concentration (CCL5/RANTES) [6]: 432.4 pg/mL and 427.1 pg/mL and 424.5 pg/mL
MFI (Bead name: CCL5/RANTES) [6]: 1206.5 and 1188.5 and 1179.5
conc/live cell (CCL5/RANTES) [6]: 69.7 pg/10^5 and 82.1 pg/10^5 and 68.5 pg/10^5
Concentration (CCL5/RANTES) [7]: 430.6 pg/mL
MFI (Bead name: CCL5/RANTES) [7]: 1200.7
conc/live cell (CCL5/RANTES) [7]: 66.2 pg/10^5
Concentration (CCL5/RANTES) [8]: 456.2 pg/mL and 419.3 pg/mL and 416.4 pg/mL
MFI (Bead name: CCL5/RANTES) [8]: 1289.0 and 1161.5 and 1151.5
conc/live cell (CCL5/RANTES) [8]: 72.4 pg/10^5 and 59.1 pg/10^5 and 67.2 pg/10^5
Concentration (CCL5/RANTES) [9]: 430.1 pg/mL
MFI (Bead name: CCL5/RANTES) [9]: 1198.8
conc/live cell (CCL5/RANTES) [9]: 65.2 pg/10^5
Concentration (CCL5/RANTES) [10]: 422.8 pg/mL and 449.1 pg/mL and 418.4 pg/mL
MFI (Bead name: CCL5/RANTES) [10]: 1173.5 and 1264.5 and 1158.5
conc/live cell (CCL5/RANTES) [10]: 70.5 pg/10^5 and 70.2 pg/10^5 and 55.1 pg/10^5
Concentration (CCL5/RANTES) [11]: 336.7 pg/mL
MFI (Bead name: CCL5/RANTES) [11]: 881.7
conc/live cell (CCL5/RANTES) [11]: 58.5 pg/10^5
Concentration (CCL5/RANTES) [12]: 334.7 pg/mL and 330.4 pg/mL and 345.1 pg/mL
MFI (Bead name: CCL5/RANTES) [12]: 875.0 and 860.5 and 909.5
conc/live cell (CCL5/RANTES) [12]: 53.1 pg/10^5 and 53.3 pg/10^5 and 69.0 pg/10^5
Concentration (CCL5/RANTES) [13]: 36.8 pg/mL
MFI (Bead name: CCL5/RANTES) [13]: 52.0
conc/live cell (CCL5/RANTES) [13]: 7.4 pg/10^5
Concentration (CCL5/RANTES) [14]: 27.5 pg/mL and 46.1 pg/mL
MFI (Bead name: CCL5/RANTES) [14]: 37.5 and 66.5
conc/live cell (CCL5/RANTES) [14]: 5.3 pg/10^5 and 9.6 pg/10^5
Concentration (CCL5/RANTES) [15]: 36.2 pg/mL
MFI (Bead name: CCL5/RANTES) [15]: 50.5
conc/live cell (CCL5/RANTES) [15]: 7.1 pg/10^5
Concentration (CCL5/RANTES) [16]: 31.7 pg/mL and 40.7 pg/mL
MFI (Bead name: CCL5/RANTES) [16]: 43.5 and 57.5
conc/live cell (CCL5/RANTES) [16]: 7.2 pg/10^5 and 7.0 pg/10^5
Concentration (CCL5/RANTES) [17]: 35.3 pg/mL
MFI (Bead name: CCL5/RANTES) [17]: 49.0
conc/live cell (CCL5/RANTES) [17]: 6.4 pg/10^5
Concentration (CCL5/RANTES) [18]: 33.0 pg/mL and 37.6 pg/mL
MFI (Bead name: CCL5/RANTES) [18]: 45.5 and 52.5
conc/live cell (CCL5/RANTES) [18]: 6.0 pg/10^5 and 6.8 pg/10^5
Concentration (CCL5/RANTES) (PBMC without LPS, test article 10 uM, Mean): 79.0 pg/mL
